Results from PubChem BioAssay AID179 (DTP/NCI, 2004).
Activity calls are given as the source filed them.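 The calls were made as follows: active = compounds giving half or more protection of infected cells from virus-caused growth loss, again on retest; inactive = the rest.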 Where a SMILES comes first, the peptide text is derived from it. The star is where a group is joined. OSu = O=C1CCC(=O)N1O*

Test system: CEM cells HIV-1 protection, formazan growth assay
Assay: NCI AIDS Antiviral Assay
Details: for IC50: measured here: growth of uninfected CEM cells
Method in brief: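 Human CEM cells, uninfected and HIV-1-infected, exposed to five drug concentrations; growth measured by soluble formazan assay and scored as percent protection from infection, with protecting compounds retested.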

Row | SMILES | EC50 | IC50 | outcome
1 | O=c1c2cc(S(=O)(=O)Nc3c(Cl)cccc3Cl)ccc2ncn1NS(=O)(=O)c1ccc2ccccc2c1 | > 200 µM | 37.2 µM | 
2 | O=C1CC2CCCC23CC2(CCN13)OCCO2 (stereo not drawn) |  |  | inactive
3 | CC(C)c1ccc2nc3ccc(C(=O)NCCN4CCN(c5ccccc5)CC4)cn3c(=O)c2c1 | > 200 µM | 14.8 µM | 
4 | Oc1cccnc1/C=N/OCc1ccccc1 | > 295 µM | 219 µM | 
5 | N#C/C(=C\c1ccc(C#N)cc1)C(=O)c1ccccc1 | > 97.7 µM | 41.7 µM | 
6 | OCCN1C(c2ccccc2)=CN2C=CSC21 (stereo not drawn) | > 200 µM | 29.5 µM | 
7 | CCCc1cc(=O)[nH]c2c3c(c4c(c12)OC(C)(C)C=C4)O[C@H](C)[C@@H](C)[C@@H]3O | 0.12 µM | 2 µM | 
8 | CSC1=N[C@H](c2ccccc2)CS1 | > 200 µM | > 200 µM | 
9 | CCOC(=O)NC(=O)c1cn(CC(=O)NCC(=O)NCC(=O)N2CCN(CCn3c(C)nc(C(N)=O)c3N)CC2)c(=O)[nH]c1=O |  |  | inactive
10 | Cn1c(O)c(C=Nc2ccccc2[N+](=O)[O-])c(=O)n(C)c1=O |  |  | inactive
11 | CCCC(C)N(CC(=O)Nc1ccc(S(N)(=O)=O)cc1)C(C)=O (stereo not drawn) | > 200 µM | > 200 µM | 
12 | Cc1ccc(C(=O)N(Cc2ccccc2)Cc2ccccc2)cc1N=NN(C)C | > 9.77 µM | > 9.77 µM | 
13 | CC1CC(C#N)=C2NCCCCN2C1=O (stereo not drawn) |  |  | inactive
14 | CCSc1[nH]c(NC(=S)NC(=O)c2ccccc2Cl)c(C(N)=O)c1C(N)=O | > 200 µM | 110 µM | 
15 | CC1(C)CC2(C)CC1CC2O (stereo not drawn) | > 200 µM | > 200 µM | 
16 | CC[CH2][Pb]([CH2]CC)([CH2]CC)[NH]S(=O)(=O)c1ccc(C)cc1 | > 2 µM | 0.166 µM | 
17 | CC12NC(=O)NC(=O)N1CCS2 (stereo not drawn) |  |  | inactive
18 | C=C(C)C(OC(C)=O)C(OC(C)=O)c1c(OC)ccc2ccc(=O)oc12 (stereo not drawn) | > 50.1 µM | > 50.1 µM | 
19 | Cc1nc(N)c(N2CCN(CN)CC2)c(=O)[nH]1 | > 200 µM | > 200 µM | 
20 | CCCCOC/N=C(/N)NC#N | > 525 µM | > 525 µM | 
21 | CC(=O)Oc1ccc(OC(Oc2ccccc2)c2ccccc2)cc1 (stereo not drawn) | > 89.1 µM | 60.3 µM | 
22 | Cc1ccc(=O)n(Cc2ccccc2)n1 | > 1260 µM | 912 µM | 

Row | SMILES | EC50 | IC50 | outcome
23 | Cc1cccc(NC(=O)c2cc3cc(N=Nc4ccc(Br)cc4)ccc3oc2=O)c1 |  |  | inactive
24 | NCCCCC(NC(=O)C(N)Cc1ccc(O)cc1)C(=O)NC(CCCCN)C(=O)NC(CCCCN)C(=O)ON1C(=O)CCC1=O (stereo not drawn) (H-YKKK-OSu; configuration not given here) | 162 µM | > 200 µM | 
25 | CCCCCCc1cc(S(=O)(=O)O)c(O)cc1O | > 200 µM | > 200 µM | 
26 | CC1(C)OC[C@H](COCOP2(=O)Oc3ccc4ccccc4c3-c3c(ccc4ccccc34)O2)O1 | > 200 µM | 34.7 µM | 
27 | Cc1ccc(C)c2c1OC(=O)C1CNCOC21 (stereo not drawn) | > 50.1 µM | > 50.1 µM | 
28 | O=C([CH-]C(=O)c1ccccc1)c1ccccc1.[CH-]1CCCCC1.[CH-]1CCCCC1.[CH-]1CCCCC1.[Sn+4] | > 60.3 µM |  | 
29 | COc1cccc(-n2cccc2)c1 | > 200 µM | > 200 µM | 
30 | CC(C)N(C(=O)c1ccc(NCc2cc(O)ccc2O)cc1)C(C)C | > 200 µM | 12.6 µM | 
31 | CCOC(=O)CCCc1cc(=O)c2c(C)c3[nH]c4ccc(Cl)cc4c3c(C)c2[nH]1 | > 200 µM | 34.7 µM | 
32 | CC1=NN(c2ccccc2)C(=O)C1N=Nc1ccc(Br)c(C)c1 (stereo not drawn) |  |  | inactive
33 | O=C(/C=C/c1cccc(Cl)c1)c1ccccc1 | > 11.2 µM | > 11.2 µM | 
34 | CCC(NC(C)c1ccccc1)C(=O)c1ccc(OCc2ccccc2)c(OCc2ccccc2)c1 (stereo not drawn) | > 200 µM | > 200 µM | 
35 | CC(C)CCCC(C)[C@H]1CC[C@H]2[C@@H]3CC[C@H]4C[C@@H](CCC=C(c5cc(Cl)c(OCc6ccccc6B6OC(C)(C)C(C)(C)O6)c(C(=O)OCc6ccccc6B6OC(C)(C)C(C)(C)O6)c5)c5cc(Cl)c(OCc6ccccc6B6OC(C)(C)C(C)(C)O6)c(C(=O)OCc6ccccc6B6OC(C)(C)C(C)(C)O6)c5)CC[C@]4(C)[C@H]3CC[C@]12C (stereo partly drawn) | > 126 µM | > 126 µM | 
36 | NC(=S)N/N=C/c1cccc(CC(O)(C(F)(F)F)C(F)(F)F)n1 | > 200 µM | 5.89 µM | 
37 | CC(=O)NNc1nc(C)c(C(=O)NNC(=O)C(=O)Nc2c(C)cccc2C)s1 | > 89.1 µM | 28.2 µM | 
38 | CC[N+](CC)=c1ccc2nc3c(cc(N)c4ccccc43)oc-2c1 | > 200 µM | 3.8 µM | 
39 | CCCCCCCCCCCCCCCC(=O)Nc1ccn(C2CCC(COP(=O)(O)OC3CC(n4cc(F)c(=O)[nH]c4=O)OC3CO)O2)c(=O)n1 (stereo not drawn) | > 0.126 µM | 0.038 µM | 
40 | CC(=O)N1N=C(N)CC1=O | > 200 µM | > 200 µM | 
41 | COc1nc(NC2OC(COC(C)=O)C(OC(C)=O)C(OC(C)=O)C2OC(C)=O)c(N=C(C)C(C)=O)c(=O)n1C (stereo not drawn) |  |  | inactive
42 | Cc1ccc(S(=O)(=O)c2ccc([N+](=O)[O-])o2)cc1 | 0.02 µM | 0.0631 µM | 
43 | Cc1ncc(CCl)c2c1OC(C)(C)OC2 | > 676 µM | 7.94 µM | 
44 | O=c1/c(=C/c2ccccc2O)sc2nc3ccccc3n12 | > 17.8 µM | > 17.8 µM | 

Row | SMILES | EC50 | IC50 | outcome
45 | CN(C)CCCNC(=O)c1cc(NC(=O)c2cc(NC(=O)c3cc(NC(=O)c4ccc(C(=O)Nc5cc(C(=O)Nc6cc(C(=O)Nc7cc(C(=O)NCCCN(C)C)n(C)c7)n(C)c6)n(C)c5)cc4)cn3C)cn2C)cn1C | > 100 µM | > 100 µM | 
46 | COc1cc(Nc2nc3cc(C(F)(F)F)ccc3nc2-c2ccccc2)cc(OC)c1OC | > 41.7 µM | > 41.7 µM | 
47 | Nc1ccc(S(=O)(=O)N/N=C/c2ccc3c(c2)OCO3)cc1 | > 81.3 µM | > 81.3 µM | 
48 | O=C(CC(C(=O)c1cccs1)c1cccs1)c1ccsc1 (stereo not drawn) | > 200 µM | 11.7 µM | 
49 | CC1CCC2c3c([nH]c4ccccc34)C3C(=O)N(C4CCCCC4)C(=O)C3C2C1 (stereo not drawn) | > 200 µM | 9.33 µM | 
50 | CC1=NC(C)(C)N(O)C1(C)C | > 200 µM | > 200 µM | 
51 | O=C(CC(=O)c1ccc(Cl)cc1)Cc1ccc2ccccc2n1 | > 11.2 µM | > 11.2 µM | 
52 | CC1=NN(C(=O)Cc2ccccc2)C(=O)/C1=C\C=C\c1ccccc1 | > 57.5 µM | > 57.5 µM | 
53 | CCCCON1C[C@H](OC(C)=O)C(OC(C)=O)[C@H](OC(C)=O)C1 (stereo partly drawn) | > 200 µM | > 200 µM | 
54 | COC(=O)C12C3C4C1C1C2C3C41I (stereo not drawn) | > 126 µM | > 126 µM | 
55 | N#Cc1cc([N+](=O)[O-])ccc1NC(=O)C(F)(F)F | > 100 µM | 89.1 µM | 
56 | O=C(O)c1ccc([N+](=O)[O-])c2c(=O)c3ccccc3[nH]c12 |  |  | inactive
57 | Cn1c(-c2ccccc2)cc(-c2ccsc2)c1-c1ccsc1 | > 200 µM | 158 µM | 
58 | COc1c(Cl)cc(C(=CCN[C@@H]2CC[C@@]3(C)[C@@H](CC[C@@H]4[C@@H]3CC[C@]3(C)[C@@H]([C@H](C)CCCC(C)C)CC[C@@H]43)C2)c2cc(Cl)c(OC)c(C(=O)O)c2)cc1C(=O)O | > 100 µM | 61.7 µM | 
59 | CN1C(=O)CCSC1=S |  |  | inactive
60 | CN1N(c2ccccc2)C(=O)C2=NC=C(C(=O)c3ccc(Cl)cc3)C(=N)C21C (stereo not drawn) | > 200 µM | > 200 µM | 
61 | COc1cc(C2C(=O)C(Cl)N2Nc2nc(C)cc(=O)[nH]2)cc(OC)c1OC (stereo not drawn) | > 66.1 µM | 9.77 µM | 
62 | CCOC(=O)/C=C(\C)NCCSSCCN/C(C)=C/C(=O)OCC | > 200 µM | 50.1 µM | 
63 | CCOC(=O)c1nc2ccccc2nc1Oc1cc(OC)cc(OC)c1 | > 200 µM | > 200 µM | 
64 | COc1nc2c(c(=O)[nH]1)N=C(c1ccc([N+](=O)[O-])cc1)CC(c1ccccc1)N2 (stereo not drawn) | > 200 µM | 46.8 µM | 
65 | CCOC(=O)c1c2nc3ccccc3sc-2c(C(=O)OCC)c1C(=O)OCC | > 20 µM | 0.977 µM | 
66 | OCc1cccnc1 | > 200 µM | > 200 µM | 

Row | SMILES | EC50 | IC50 | outcome
67 | CN(/N=C\c1ccnc2ccccc12)c1ccccc1 |  |  | inactive
68 | O=C(Nc1cccc(O)c1)C(=O)C1C(=O)NC(=S)NC1=O | > 813 µM | > 813 µM | 
69 | Cc1c(/C=C/C(=O)O)no[n+]1[O-] | > 200 µM | > 200 µM | 
70 | C[n+]1c2ccccc2n2c3ccccc3c(NCCc3ccccn3)c(C#N)c21 | > 20 µM | 1.29 µM | 
71 | O=C1CCC2=NCc3c(ccc4ccccc34)N12 | > 398 µM | 347 µM | 
72 | COc1ccc2c3c([nH]c2c1)CCN(CCCC(=O)c1ccc(F)cc1)C3 | > 200 µM | 32.4 µM | 
73 | CC(=O)NNc1nc(C)c(C(/C=C/c2ccc(Cl)cc2)=N/NC(=O)C[N+](C)(C)C)s1 | > 14.8 µM | > 14.8 µM | 
74 | S=c1ncc(-c2cncc(-c3cnc(=S)[nH]c3)n2)c[nH]1 | > 200 µM | > 200 µM | 
75 | O=C1NC(=O)C(=Cc2ccccc2Cl)C(=O)N1 | > 269 µM | 2.63 µM | 
76 | C[CH2][Sn]1([CH2]C)[O]C(=O)[O][Sn]([CH2]C)([CH2]C)[O]1 | > 8.32 µM | 2.24 µM | 
77 | O=c1nc2cc(-c3ccccc3)[nH]c2nn1-c1c(Cl)cc(Cl)cc1Cl | > 91.2 µM | 1.17 µM | 
78 | c1ncn(C23C4C5C6C4C2C6C53)n1 (stereo not drawn) | > 200 µM | > 200 µM | 
79 | Cc1cn(C2CC(C)N(CCO)O2)c(=O)[nH]c1=O (stereo not drawn) | > 200 µM | > 200 µM | 
80 | CCCCCC(=O)Cc1cc(OC)cc2c1C(=O)Oc1cc(O)c(C(=O)O)c(CC(=O)CCCCC)c1O2 | > 339 µM | 112 µM | 
81 | Cc1[nH]n(-c2nc3c(c(=O)[nH]2)CCCC3)c(=O)c1CCO | > 200 µM | 129 µM | 
82 | C#CCN(C(=O)C(F)(F)F)c1ccc(C(=O)c2ccc(N(CC#C)C(=O)C(F)(F)F)cc2)cc1 | > 28.2 µM | > 28.2 µM | 
83 | C/C(CCn1[nH]c(=O)ccc1=O)=N\O | > 1070 µM | > 1070 µM | 
84 | Nc1ncnc2c1ncn2C1CCC(CP(=O)(O)O)C1 (stereo not drawn) | > 200 µM | > 200 µM | 
85 | CCOC(=O)c1c(N2CCOCC2)[nH]c(=O)c(C(c2ccc(N(C)C)cc2)c2c(O)c(C(=O)OCC)c(N3CCOCC3)[nH]c2=O)c1O | > 200 µM | > 200 µM | 
